Source: patent US9192613B1, “Treatment method for primary premature ejaculation” (Sapere IP, LLC, priority 2014, dated 2015)

Tests used:
[1] = tested on: patients with primary premature ejaculation; assay: On-demand treatment of primary premature ejaculation: onset of action; format: in vivo, men; conditions: intracavernosal injection, 5-20 mcg, 20 mcg/ml
Experimental: Side-effects are dose related and include dizziness, headache, nausea, blurred vision and dry mouth.
The doses start at lower doses such as 5 mcg=0.25 ml and progress to higher doses such as 10 mcg=0.5 ml and 20 mcg=1 ml, as needed, to achieve the desired effect.

[2] = tested on: men with premature ejaculation; conditions: cited from earlier work
[3] = tested on: patients receiving intracavernous injection; conditions: pooled publications; cited from earlier work

SMILES: CCCCC[C@H](O)/C=C/[C@H]1[C@H](O)CC(=O)[C@@H]1CCCCCCC(=O)O [Alprostadil]
- Onset of Action [1]: 5 to 10 min

SMILES: CN(C)CCCN1c2ccccc2CCc2ccc(Cl)cc21 [Clomipramine]
- Effect at delaying ejaculation ([2]; oral administration): significant effect at delaying ejaculation
- Time the drug needs to be taken before sexual relations ([2]; oral, on-demand use): 3 to 4 h

SMILES: COc1ccc(Cc2nccc3cc(OC)c(OC)cc23)cc1OC [Papaverine]
- Fibrosis (%) [3]: 5.7%
- Liver Enzymes (%) [3]: 1.6%
- Pain (%) [3]: 4%
- Priapism (%) [3]: 7.1%
